Activity calls are given as the source filed them. The rule behind the calls is not given here.
Experiment: Antioxidant activity assessed as hydroxyl radical scavenging activity at 10 mM at pH 7 by fenton reaction
Type: functional

## Cc1c(N)c(=O)n(-c2ccccc2)n1C
  Activity: Active

## CNc1c(C)n(C)n(-c2ccccc2)c1=O
  Activity: Active

## Cc1c(N(C)C)c(=O)n(-c2ccccc2)n1C
  Activity: Active

Source: ChEMBL document CHEMBL1165864, “Scavenging activity of aminoantipyrines against hydroxyl radical” (Eur J Med Chem, 2010)
